Measured values: patent US20260191933A1, “PHARMACEUTICAL COMBINATIONS AND USES THEREOF” (The University of Melbourne, priority 2022, published 2026)

Assays:
[1] = system: mixed CSPGs (aggrecan, neurocan, phosphacan and versican); assay: CSPG-ECM binding assay, mixed CSPGs
Method: (§1) To determine the interaction of insulin with CSPG-ECM components in vitro, flat-bottom 96-well plates were first coated with 10 μg/ml poly-L-lysine overnight, followed by a rinsing with water. A purified CSPGs mix containing neurocan, phosphacan, versican and aggrecan (CC117, Merck Millipore, MA), purified aggrecan (A1960, Merck Millipore, MA) or purified chondroitin 4-sulfate (59004, Selleck Chemicals, TX), were coated onto the 96-well plates at a concentration of 10 μg/ml for 4 h at RT, followed by a rinse with water. Insulin-FITC was incubated on plates containing ECM at concentrating ranging from 5 ng/ml-1 mg/ml for 2 h at RT and protected from light. Control wells contained either no ECM, bovine serum albumin (10 μg/ml) or poly-L-lysine alone. Wells were washed 3 times with water and imaged at 495 nm using a SPECTROstar Nano Microplate Reader (BMG Labtech, Germany). To digest CSPG-ECM or to negate CSPG-ECM negative charge. wells were incubated with either chABC (0.5 U/ml) or poly-1-arginine (10 μg/ml, P7762, Merck Millipore, MA) for 1 h at 37° C. after the ECM coating, washed 3 times with water and then incubated with insulin-FITC.

chondroitin 4-sulfate = assay: CSPG-ECM binding assay, chondroitin 4-sulfate; conditions: plates coated with chondroitin 4-sulfate (C4S), 2-hours
Method: as §1

aggrecan = biological target: T1, aggrecan (Bos taurus, UniProt P13608); assay: CSPG-ECM binding assay, aggrecan; conditions: plates coated with aggrecan, 2-hours
T1 construct: purchased Merck Millipore A1960
T1 sequence (P13608 17-2364): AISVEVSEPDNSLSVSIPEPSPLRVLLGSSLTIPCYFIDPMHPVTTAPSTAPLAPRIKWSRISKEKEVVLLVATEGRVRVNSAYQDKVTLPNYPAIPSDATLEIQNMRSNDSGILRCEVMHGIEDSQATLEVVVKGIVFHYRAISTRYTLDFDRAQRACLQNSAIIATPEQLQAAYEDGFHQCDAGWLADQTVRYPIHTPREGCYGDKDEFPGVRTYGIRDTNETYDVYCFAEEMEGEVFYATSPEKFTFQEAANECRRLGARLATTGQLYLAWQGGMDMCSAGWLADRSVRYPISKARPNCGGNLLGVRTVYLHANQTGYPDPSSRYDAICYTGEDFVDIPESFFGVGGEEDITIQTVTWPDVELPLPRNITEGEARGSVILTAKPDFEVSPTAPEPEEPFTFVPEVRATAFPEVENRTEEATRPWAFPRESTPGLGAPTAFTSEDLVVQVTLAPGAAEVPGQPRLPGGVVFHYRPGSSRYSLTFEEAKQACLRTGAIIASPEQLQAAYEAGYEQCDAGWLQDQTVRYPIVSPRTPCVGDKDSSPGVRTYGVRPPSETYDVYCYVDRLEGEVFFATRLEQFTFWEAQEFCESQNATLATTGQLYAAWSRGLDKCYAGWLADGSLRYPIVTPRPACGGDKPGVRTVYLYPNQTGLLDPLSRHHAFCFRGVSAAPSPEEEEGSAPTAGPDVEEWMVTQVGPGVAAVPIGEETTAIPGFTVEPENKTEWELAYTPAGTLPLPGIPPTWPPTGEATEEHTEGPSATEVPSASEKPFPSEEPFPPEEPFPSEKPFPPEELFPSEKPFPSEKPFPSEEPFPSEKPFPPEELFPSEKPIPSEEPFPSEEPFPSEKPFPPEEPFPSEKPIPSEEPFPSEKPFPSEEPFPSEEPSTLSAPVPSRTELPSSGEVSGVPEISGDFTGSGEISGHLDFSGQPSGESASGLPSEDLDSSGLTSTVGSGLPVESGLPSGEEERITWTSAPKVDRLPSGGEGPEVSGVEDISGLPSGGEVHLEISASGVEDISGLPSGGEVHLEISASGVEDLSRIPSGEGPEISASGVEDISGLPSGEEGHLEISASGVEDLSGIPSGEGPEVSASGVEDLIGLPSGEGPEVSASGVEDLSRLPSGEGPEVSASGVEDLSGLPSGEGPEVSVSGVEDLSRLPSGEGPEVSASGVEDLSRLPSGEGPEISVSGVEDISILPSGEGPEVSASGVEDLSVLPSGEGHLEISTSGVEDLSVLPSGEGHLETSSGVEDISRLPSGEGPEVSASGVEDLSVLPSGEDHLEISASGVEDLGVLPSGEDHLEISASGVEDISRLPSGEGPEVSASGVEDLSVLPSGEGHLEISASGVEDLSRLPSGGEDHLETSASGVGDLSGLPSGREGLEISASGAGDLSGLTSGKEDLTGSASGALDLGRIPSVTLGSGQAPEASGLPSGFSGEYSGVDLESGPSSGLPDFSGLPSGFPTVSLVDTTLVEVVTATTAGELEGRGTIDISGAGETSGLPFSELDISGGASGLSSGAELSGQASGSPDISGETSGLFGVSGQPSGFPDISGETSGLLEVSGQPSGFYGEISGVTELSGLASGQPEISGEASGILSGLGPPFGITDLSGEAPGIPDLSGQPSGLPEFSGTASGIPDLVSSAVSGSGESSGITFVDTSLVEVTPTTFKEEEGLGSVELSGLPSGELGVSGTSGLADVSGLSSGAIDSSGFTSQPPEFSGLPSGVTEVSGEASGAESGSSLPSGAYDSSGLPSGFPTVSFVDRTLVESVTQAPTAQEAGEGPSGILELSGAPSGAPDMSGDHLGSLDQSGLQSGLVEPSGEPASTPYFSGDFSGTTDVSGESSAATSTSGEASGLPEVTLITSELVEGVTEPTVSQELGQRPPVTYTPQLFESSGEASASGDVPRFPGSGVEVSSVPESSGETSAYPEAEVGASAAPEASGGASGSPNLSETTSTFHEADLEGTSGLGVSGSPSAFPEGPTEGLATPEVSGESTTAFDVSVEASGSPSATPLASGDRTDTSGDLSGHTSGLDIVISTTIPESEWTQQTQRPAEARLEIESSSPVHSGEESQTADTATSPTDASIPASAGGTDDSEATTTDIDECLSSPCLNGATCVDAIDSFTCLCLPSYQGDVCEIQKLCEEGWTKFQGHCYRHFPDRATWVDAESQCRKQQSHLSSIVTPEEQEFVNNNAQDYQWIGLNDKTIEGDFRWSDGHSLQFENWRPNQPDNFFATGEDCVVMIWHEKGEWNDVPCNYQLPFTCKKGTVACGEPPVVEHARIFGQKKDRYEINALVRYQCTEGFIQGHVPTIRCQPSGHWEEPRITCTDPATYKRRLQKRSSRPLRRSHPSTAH
Method: as §1

Substance	binding of insulin-FITC ([1]; plates coated with mixed CSPGs, 2-hours)	binding of insulin-FITC (chondroitin 4-sulfate)	binding of insulin-FITC (aggrecan)	insulin-ECM interactions ([1]; CSPG mix, in the presence of poly-arginine)
insulin-FITC: fluorescein isothiocyanate tagged insulin	specific dose-dependent binding	specific dose-dependent binding	specific dose-dependent binding	–
poly-arginine	–	–	–	significantly reduced
